Data set [1] in a line: Solubility of free base in buffers of varying pH. It is filed as physicochemical. The method, then: The solubility of a typical API (i.e., Compound 2 as disclosed herein) in free base form was evaluated in buffers of varying pH.
The nature of data set [2]: Stability of HCl salt at different temperatures for 8 hours. It is filed as physicochemical. The method, then:
The stability of a Compound 2 HCl salt at different temperatures for 8 hours is shown below. The initial purity at TO is 96.5%. […] Similar observation was also made for several other compounds of the invention.

As to `C=CC(=O)Nc1cc(Nc2nc(-c3ccnc(N4CCn5c(cc6c5CC(C)(C)C6)C4=O)c3CO)cn(C)c2=O)ccc1N1CCN(C2CCOCC2)C[C@@H]1C` [Compound 2, N-(5-[[6-(2-[4,4-dimethyl-9-oxo-1,10-diazatricyclo[6.4.0.0^[2,6]]dodeca-2(6),7-dien-10-yl]-3-(hydroxymethyl)pyridin-4-yl)-4-methyl-3-oxopyrazin-2-yl]amino]-2-[(2S)-2-methyl-4-(oxan-4-yl)piperazin-1-yl]phenyl)prop-2-enamide], the “Ave. Conc.” value came out at 55.52 mg/mL in data set [1] (0.01N HCl); 0.09 mg/mL in data set [1] (Water); 9.67 mg/mL in data set [1] (pH 2.0); 2.07 mg/mL in data set [1] (pH 3.0); 1.81 mg/mL in data set [1] (pH 4.5); 0.02 mg/mL in data set [1] (pH 6.8).
As to `C=CC(=O)Nc1cc(Nc2nc(-c3ccnc(N4CCn5c(cc6c5CC(C)(C)C6)C4=O)c3CO)cn(C)c2=O)ccc1N1CCN(C2CCOCC2)C[C@@H]1C.Cl` [Compound-2 HCl, N-(5-[[6-(2-[4,4-dimethyl-9-oxo-1,10-diazatricyclo[6.4.0.0^[2,6]]dodeca-2(6),7-dien-10-yl]-3-(hydroxymethyl)pyridin-4-yl)-4-methyl-3-oxopyrazin-2-yl]amino]-2-[(2S)-2-methyl-4-(oxan-4-yl)piperazin-1-yl]phenyl)prop-2-enamide hydrochloride], the “Purity (%) at 8 h” value in data set [2] (50° C., 8 hours) stood at 95.7%; in data set [2] (80° C., 8 hours) it was 90.1%; in data set [2] (100° C., 8 hours), 84.7%. Also, the “stability assessment of HCl salt” value in data set [2] (different temperatures, 8 hours) is on record as “not sufficiently stable”. Besides, in data set [2] (stability study, at TO (start)), the initial purity worked out at 96.5%.

Source of the values: US20230346779A1, “DOSAGE FORM COMPOSITIONS COMPRISING AN INHIBITOR OF BTK AND MUTANTS THEREOF” (Newave Pharmaceutical Inc., priority 2020, published 2023).
